Assay results: publication PMC6158578, “Optimization and Lead Selection of Benzothiazole Amide Analogs Toward a Novel Antimycobacterial Agent” (Frontiers in Microbiology, 2018)
Values after ≈ are worked out from the molar mass of the structure shown.

Assays:
Experiment in all cases: microbe, parasite or virus in culture
Assay type in all cases: cell-based, M. tuberculosis
Conditions in all cases: Mycobacterium tuberculosis
[1] = system: Fluoroquinolone-resistant Mtb
[2] = system: Isoniazid-resistant Mtb strain 1
[3] = system: Isoniazid-resistant Mtb strain 2
[4] = system: Rifampin-resistant Mtb strain 1
[5] = system: Rifampin-resistant Mtb strain 2

## CC12CC3CC(C)(C1)CC(C(=O)Nc1nc4ccc(OC(F)(F)F)cc4s1)(C3)C2 [CRS400226]
[1]
  IC90: 3.7 µg/mL (≈ 8.72 µM)
[2]
  IC90: 3.9 µg/mL (≈ 9.19 µM)
[3]
  IC90: 4.2 µg/mL (≈ 9.89 µM)
[4]
  IC90: 3.9 µg/mL (≈ 9.19 µM)
[5]
  IC90: 4.7 µg/mL (≈ 11.1 µM)
